Data: US12605411B2, “Phospholipid compositions for delivery of therapeutic compounds” (Aker BioMarine Human Ingredients AS, priority 2022, dated 2026)
Converted amounts (≈) assume the structure as drawn.

Assays:
[1] = cited from earlier work
[2] = cited from earlier work; remark: listed apart in the source
[3] = Plasma CBD concentration after dosing (FIG. 5); format: in vivo
[4] = humans, taken orally; cited from earlier work
[5] = CoQ10 absorption in plasma after single dose, clinical study; format: in vivo, human
Protocol: The purpose of the study was to investigate compare the CoQ10 level of absorption in the plasma of a phospholipid krill oil+CoQ10 product to a comparator CoQ10-product (without any krill oil).
Absorption levels of CoQ10 in plasma were measured at time (T)=0, 2, 4, 6 and 8 hours after the single-dose (2 soft gels) intake of the study products. A 7-day minimum washout period between the two doses was specified.
A total of 13 subjects successfully completed the study.

Q: With `O=c1c(O)c(-c2ccc(O)c(O)c2)oc2cc(O)ccc12` [Fisetin] as the compound, how does the solubility [1] read?
A: Its solubility is < 1000 µg/mL.

Q: And the Solubility ethanol [1]?
A: The Solubility ethanol was 5000 µg/mL (≈ 17.5 mM).

Q: And the Solubility water ([1]; water)?
A: Its Solubility water is 150 µg/mL (≈ 0.524 mM).

Q: What about the logP [2] of the same compound?
A: Its logP is 1.81-2.03.

Q: For `C=C(C)[C@@H]1CCC(C)=C[C@H]1c1c(O)cc(CCCCC)cc1O` [CBD, Cannabidiol], which “increase of bioavailability of CBD” value ([3]; krill oil compared to MCT, FIG. 5) is on record?
A: Its value is 3 fold.

Q: And the “absorption of CBD (plasma CBD concentration)” value ([3]; krill oil vs medium chain triglyceride (MCT) oil)?
A: Its value is “much greater extent”.

Q: And the bioavailability [4]?
A: Its bioavailability is “around 6%”.

Q: What does the source list for `O=c1c(O)c(-c2ccc(O)c(O)c2)oc2cc(O)cc(O)c12` [Quercetin]?
A: Solubility ethanol [1]: 2000 µg/mL (≈ 6.62 mM); logP [2]: 1.50

Q: What does the source list for `COC1=C(OC)C(=O)C(C/C=C(\C)CC/C=C(\C)CC/C=C(\C)CC/C=C(\C)CC/C=C(\C)CC/C=C(\C)CC/C=C(\C)CC/C=C(\C)CC/C=C(\C)CCC=C(C)C)=C(C)C1=O` [CoQ10, Coenzyme Q10]?
A: absorption of CoQ10 in plasma, change from baseline (in words) ([5]; 0-8 hours after single dose, 13 subjects): No significant absorption; Change of plasma CoQ10 from baseline ([5]; 2 hours): −11.49%; Change of plasma CoQ10 from baseline ([5]; 4 hours): −4.53%; Change of plasma CoQ10 from baseline ([5]; 6 hours): 1.71%; Change of plasma CoQ10 from baseline ([5]; 8 hours): 6.15%; concentration at 2 h ([5]; human, plasma, oral, 2 soft gels, 2 hours after single dose): 8780 ng/mL; concentration at 4 h ([5]; human, plasma, oral, 2 soft gels, 4 hours after single dose): 9570 ng/mL; concentration at 6 h ([5]; human, plasma, oral, 2 soft gels, 6 hours after single dose): 10100 ng/mL; concentration at 8 h ([5]; human, plasma, oral, 2 soft gels, 8 hours after single dose): 10500 ng/mL; concentration at 0 h ([5]; human, plasma, oral, 2 soft gels, Baseline): 9920 ng/mL
